Measurements as given in US20250195540A1, “Use of dehydroepiandrosterone (DHEA) in preparation of drug for preventing and treating ophthalmic myopia, dosage forms of DHEA, and preparation methods of dosage forms” (Zhongshan Ophthalmic Center of Sun Yat-sen University, priority 2022, published 2025).

Test system: form deprivation myopia (FDM) model
Assay: Efficacy research in form deprivation myopia (FDM) model
Format: in vivo, colored guinea pigs
Conditions: applied locally to eyes
From the text: (1) A total of 40 healthy three-week-old colored guinea pigs were randomly selected and randomly divided into 8 groups with 5 guinea pigs in each group. The 8 guinea pig groups includes a first group: a normal control group, a second group: a myopia model-alone group, a third group: a myopia model+0.01% DHEA-based eye drop group, a fourth group: a myopia model+0.1% DHEA-based eye drop group, a fifth group: myopia model+1% DHEA-based eye drop group, a sixth group: a myopia model+2% DHEA-based eye drop group, a seventh group: a myopia model+DHEA-based eye ointment group, and an eighth group: a myopia model+DHEA-based gel group. There were no statistically-significant differences in the baseline diopter and AL of the right eye among the groups.
(2) Establishment of a form deprivation myopia (FDM) model: the right eye was covered and the left eye was normally opened. […]
A) Diopter measurement: the optometry was conducted with a streak retinoscope and lenses of different diopters, and an average of diopters in horizontal and vertical meridians was taken. The optometry was conducted 3 times, and an average was taken and recorded as a result.
B) AL measurement: ALs of both eyes were measured by an A-mode ultrasound instrument. Results of 6 measurements under waveform standards were selected, and an average was taken and recorded as a result, which was accurate to 0.01 mm.

C[C@]12CC[C@H](O)CC1=CC[C@@H]1[C@@H]2CC[C@]2(C)C(=O)CC[C@@H]12 [DHEA, 3-β-hydroxyandrost-5-en-17-one]
Growth of axial length (AL) in animal models: reduce the growth of axial length (AL)
